The test system of assay [1] is WI-38. Briefly: Compound was tested for antiviral activity against WI-38 cell line using a plaque reduction assay; 10-100. It is filed as functional. As to conditions: Homo sapiens.
For assay [2], the system named is MRC5. Briefly: (§1) Compound was tested for cytotoxicity by measuring inhibition of MRC-5 cell proliferation. As to conditions: Homo sapiens. It is filed as functional.
In assay [3] the test system is WI-38. Kind of assay: Compound was tested for antiviral activity against WI-38 cell line using a plaque reduction assay; 0.1-1. The assay is classed as functional, cell-based. The settings on record: Homo sapiens. In general terms: Plaque reduction counts the foci of infection that form in a cell layer.
The test system of assay [4] is MRC5. Described as §1. It is filed as functional, cell-based. The settings on record: Homo sapiens.
Assay [5] relates to Human betaherpesvirus 5. Briefly: Compound was tested for antiviral activity against human cytomegalovirus (HCMV). It is filed as functional, organism-based.
Assay [6] concerns Human betaherpesvirus 5. Kind of assay: Compound was tested for cytotoxicity against human cytomegalovirus (HCMV). It is filed as functional.
In assay [7] the test system is WI-38. Briefly: Compound was tested for antiviral activity against WI-38 cell line using a plaque reduction assay; 0.5-1. The settings on record: Homo sapiens. It is filed as functional, cell-based.
The subject of assay [8] is WI-38. Kind of assay: Compound was tested for antiviral activity against WI-38 cell line using a plaque reduction assay; 10-50. It is filed as functional. As to conditions: Homo sapiens.
In assay [9] the test system is WI-38. Briefly: (§2) Compound was tested for antiviral activity against WI-38 cell line using a plaque reduction assay. It is filed as functional, cell-based. The settings on record: Homo sapiens.
The subject of assay [10] is WI-38. Described as §2. The assay is classed as functional. The settings on record: Homo sapiens.

≈ marks a conversion by molar mass, not a printed value.

The CC50 is the concentration giving 50% cytotoxicity. What is called IC50 is the concentration that gives 50% inhibition. Turning to `Nc1nc(O)c2ncn(C[C@@H]3CC[C@@H](P(=O)(O)O)O3)c2n1`, the cytotoxic concentration (CC50) came out at 10 µg/mL (≈ 31.7 µM) in [1] and 28 µg/mL (≈ 88.8 µM) in assay [2]. For the same compound, the IC50 was 0.1 µg/mL (≈ 0.317 µM) in assay [3] and 0.11 µg/mL (≈ 0.349 µM) in assay [4].

`Nc1nc(O)c2ncn(C[C@@H]3CO[C@H](P(=O)(O)O)O3)c2n1` gave an IC50 in assay [5] of 45 µg/mL (≈ 142 µM). This compound came in with a CC50 in assay [6] of over 100 µg/mL.

Take `Nc1nc(O)c2ncn(C[C@@H]3CC[C@H](P(=O)(O)O)O3)c2n1`: the CC50 in assay [2] was over 10 µg/mL; in assay [8] it was 10 µg/mL (≈ 31.7 µM). Also, the IC50 in assay [4] worked out at 1.6 µg/mL (≈ 5.08 µM); in assay [7], 0.5 µg/mL (≈ 1.59 µM).

`Nc1nc(N)c2ncn(C[C@H]3CC[C@H](P(=O)(O)O)O3)c2n1` registered an IC50 in assay [9] of over 50 µg/mL. In assay [10], this compound displayed a CC50 of over 100 µg/mL.

`Nc1ncc2ncn(C[C@@H]3CC[C@H](P(=O)(O)O)O3)c2n1` yielded an IC50 in [9] of 100 µg/mL (≈ 334 µM). In assay [10], this compound yielded a half-maximal cytotoxic concentration (CC50) of over 100 µg/mL.

In [9], `Nc1nc(N)c2ncn(C[C@@H]3CC[C@H](P(=O)(O)O)O3)c2n1` yielded an IC50 of over 50 µg/mL. Moreover, the CC50 in assay [10] is over 100 µg/mL.

Consider `Nc1nc2c(ncn2COC(CO)CO)c(=O)[nH]1` [GANCICLOVIR], for which, in assay [2], the CC50 is over 100 µg/mL. This compound gave an IC50 in assay [4] of 2.1 µg/mL (≈ 8.23 µM).

For the compound `Nc1ccn(C[C@@H](CO)OCP(=O)(O)O)c(=O)n1.O.O` [CIDOFOVIR], the values for the CC50 in assay [2] and in assay [8] were 19 µg/mL and 10 µg/mL, respectively. Also, the IC50 in [3] was determined as 0.1 µg/mL; in assay [4] it was 0.04 µg/mL.

As for `Nc1nc(N)c2ncn(C[C@H]3CC[C@@H](P(=O)(O)O)O3)c2n1`, in [9], the 50% inhibitory concentration (IC50) is over 50 µg/mL. This compound also displayed a 50% cytotoxic concentration (CC50) in assay [10] of over 100 µg/mL.

In assay [9], `Nc1nc(O)c2ncn(C[C@H]3CC[C@@H](P(=O)(O)O)O3)c2n1` showed an IC50 of over 10 µg/mL. The compound also came in with a 50% cytotoxic concentration (CC50) in assay [10] of 100 µg/mL (≈ 317 µM).

Take `Nc1nc(O)c2ncn(C[C@H]3CC[C@H](P(=O)(O)O)O3)c2n1`: the IC50 in [9] is over 10 µg/mL. In assay [10], this compound gave a CC50 of over 100 µg/mL.

As for `Nc1nc(N)c2ncn(C[C@@H]3CC[C@@H](P(=O)(O)O)O3)c2n1`, in assay [9], half-maximal inhibition (IC50) required 50 µg/mL (≈ 159 µM). Also, the CC50 in [10] was over 100 µg/mL.

For the origin of these results see ChEMBL document CHEMBL1130711, “Identification of novel nucleotide phosphonate analogs with potent anti-HCMV activity” (Bioorg Med Chem Lett, 1998).
